Experimental data published in publication PMC6270921, “Study on the Cytotoxic Activity of Drimane Sesquiterpenes and Nordrimane Compounds against Cancer Cell Lines” (Molecules, 2014).

Legend:
[1] = tested on: panel of cancer cell lines; assay: Cytotoxicity against a panel of cancer cell lines (summary); assay type: cell-based; conditions: Homo sapiens; summary statement of the conclusions
Procedure: The cytotoxicity of compounds 1–12 was evaluated in vitro against different cancer cell lines: MCF-7 breast cancer, DU-145 and PC-3 human prostate cancer, and one non-tumor cell line, human colon epithelial cells CCD 841 CoN (CoN). […] Four serial dilutions (from 12.5 to 100 μM) for each sample were evaluated in triplicate.
The sulforhodamine B assay was used according to the method of Skehan et al.. Briefly, the cells were set up at 3 × 10^3 cells per well of a 96 200 μL well, flat-bottomed, microplate. Cells were incubated at 37 °C in a humidified 5% CO2/95% air mixture and treated with the compounds at different concentrations for 72 h. At the end of drug exposure, cells were fixed with 50% trichloroacetic acid at 4 °C. After washing with water, cells were stained with 0.1% sulforhodamine B (Sigma-Aldrich, St. Louis, MO, USA), dissolved in 1% acetic acid (50 μL/well) for 30 min, and subsequently washed with 1% acetic acid to remove unbound stain. Protein-bound stain was solubilized with 100 μL of 10 mM unbuffered Tris base, and the cell density was determined using a […] plate reader (wavelength 540 nm). Values shown are the mean ± SD of three independent experiments in triplicate. The software used to calculate the IC50 values was GraphPad (GraphPad Software, San Diego, CA, USA).

[2] = tested on: Salmonella strains TA 98, TA 2637, and TA 100; conditions: at highest non-toxic concentration; cited from earlier work
[3] = tested on: caspase-3 in CoN cells; assay: Caspase 3 activity assay (colorimetric, DEVD-pNA); assay type: cell-based, human; conditions: compound 50 μM, control 1% ethanol
Description: (§1) Depletion of mitochondrial membrane potential leads to the release of apoptogenic factors, such as cytochrome c in the apoptotic cascade, and activation of caspases. Then we investigated the effects of our compounds on caspase activity. We focused on caspase-3, which is a main executor of apoptosis playing a central role in its biological processing. We analyzed the effect of treatment with the compound 1, 8 and 12 on caspase-3 activation in normal and cancer cells. […] Compound 1 increased the activity of caspase-3 by 3.4 ± 0.1, 1.4 ± 0.1 and 2.8 ± 0.1 times versus control cells in MCF-7 (black), CoN (white) and PC-3 (gray) cells, respectively. Compound 8 increased the activity of caspase 3 by 2.4 ± 0.1, 1.3 ± 0.2 and 2.7 ± 0.1 times versus control cells in MCF-7 (black), CoN (white) and PC-3 (gray) cells, respectively.
(§2) Caspase activity was measured using a colorimetric assay. Briefly, the cells exposed to compounds were collected by centrifugation at 1000 rpm and lysed with lysis buffer (1% Triton X-100, 0.32 M sucrose, 5 mM EDTA, 10 mM Tris–HCl, pH 8.0, 2 mM dithiothreitol, 1 mM PMSF, […] aprotinin, 1 mg/mL leupeptin). Thereafter, the lysates were transferred to wells in a 96-well microplate and were incubated with DEVD-pNA (final concentration 200 μM) specific for caspase-3/7, at 37 °C for 1 h. The intensity of the developed color was read at 405 nm in a microplate reader (SpectraMax, Winooski, VT, USA). The results are expressed as percentages of the control level.

[4] = tested on: caspase-3 in PC-3 cells; assay: Caspase 3 activity assay (colorimetric, DEVD-pNA); assay type: cell-based, human; conditions: PC-3, compound 50 μM; control 1% ethanol
Description: as §1, §2

[5] = tested on: caspase-3 in MCF-7 cells; assay: Caspase 3 activity assay (colorimetric, DEVD-pNA); assay type: cell-based, human; conditions: MCF-7, compound 50 μM; control 1% ethanol
Description: as §1, §2

[6] = tested on: PC-3 cells; assay: Morphological changes, phase contrast microscope; assay type: cell-based, human; conditions: PC-3, 50 μM compound for 24 h
Procedure: (§3) First, the appearance of morphological changes in the cells treated with 50 μM compound for 24 h was analyzed.

[7] = tested on: MCF-7 cells; assay: Morphological changes, phase contrast microscope; assay type: cell-based, human; conditions: MCF-7, 50 μM compound for 24 h
Procedure: as §3

[8] = tested on: CoN cells; assay: Morphological changes, phase contrast microscope; assay type: cell-based, human; conditions: 50 μM compound for 24 h
Procedure: as §3

[9] = tested on: PC-3 cells; assay: Morphological assessment of cell apoptosis, Hoechst 33342 staining; assay type: cell-based, human; conditions: PC-3, 24 h exposure, fluorescence microscope
Procedure: (§4) Nuclear changes in PC-3, MCF-7 and CoN cells were observed under a fluorescence microscope (200×, Figure 4).
(§5) Briefly, on 24-well chamber slides, 1 × 10^4 cells/mL were cultured and exposed to compounds for 24 h. The control group was also exposed to 1% ethanol. The cells were washed twice with phosphate buffer solution, fixed with 3.7% formaldehyde, and washed again with phosphate buffer solution. Following the addition of 1 μM Hoechst 33342 (Sigma-Aldrich, Santiago, Chile), they were reacted in a dark room at room temperature for 30 min. After washing, they were examined under an immunofluorescence microscope (IX 81 model inverted microscope, Olympus, Santiago, Chile).

[10] = tested on: MCF-7 cells; assay: as above; assay type: cell-based, human; conditions: MCF-7, 24 h exposure, fluorescence microscope
Procedure: as §4, §5

[11] = tested on: CoN cells; assay: as above; assay type: cell-based, human; conditions: 24 h exposure, fluorescence microscope
Procedure: as §4, §5

[12] = tested on: PC-3 cells; assay: Mitochondrial membrane permeability, rhodamine 123 flow cytometry; assay type: cell-based, human; conditions: control treated cells assigned 100%
Description: (§6) Mitochondria play a crucial role in the apoptotic cascade by serving as a convergent center of apoptotic signals originating from both the extrinsic and intrinsic pathways. Changes induced in the mitochondrial membrane potential (MMP) have been reported previously to represent a determinant in the execution of cell death. As polygodial has been described as an inhibitor of mitochondrial ATPase and also as nonionic surfactant. This effect may be determinant in cell death, we has analyzed the effect of compounds 1, 8 and 12 on the mitochondrial membrane potential using flow cytometry with rhodamine 123 stain [24]. […] Similar differences were observed after treatments with compounds 1 and 8 at 100 μM.
(§7) Rhodamine 123, a cationic, voltage-sensitive probe that reversibly accumulates in mitochondria, was used to detect changes in transmembrane mitochondrial membrane potentials. Cells were labelled with 1 μM rhodamine 123 at 37 °C in cell medium for 60 min before terminating the experiment. Cells were detached from the plate, after washing with ice cold PBS, and the samples were analyzed by flow cytometry. Data are expressed in percentage of cells with rhodamine 123 [24].

[13] = tested on: MCF-7 cells; assay: as above; assay type: cell-based, human; conditions: control treated cells assigned 100%
Description: as §6, §7

[14] = tested on: CoN cells; assay: as above; assay type: cell-based, human; conditions: control treated cells assigned 100%
Description: as §6, §7

CC1(C)CCC[C@]2(C)[C@@H](C=O)C(C=O)=CC[C@@H]12 [Compound 1, polygodial]
IC50 [1]: < 200 µM | mutagenic activity [2]: no mutagenic activity | increase of caspase-3 activity [3]: 1.4 ± 0.1 times versus control cells | increase of caspase-3 activity [4]: 2.8 ± 0.1 times versus control cells | increase of caspase-3 activity [5]: 3.4 ± 0.1 times versus control cells | morphological changes of cells [6]: severely distorted | morphological changes of cells [7]: severely distorted | morphological changes of cells [8]: severely distorted | nuclear changes after Hoechst 33342 staining [9]: chromatin condensation and karyopyknosis | nuclear changes after Hoechst 33342 staining [10]: chromatin condensation and karyopyknosis | nuclear changes after Hoechst 33342 staining [11]: chromatin condensation and karyopyknosis | percentage of rhodamine 123 stained cells ([12]; PC-3, compound 50 µM): 49.1% ± 6.6% | percentage of rhodamine 123 stained cells ([12]; PC-3, compound 50 µM, listed as Comp. 1): 111.6 ± 8.9% | percentage of rhodamine 123 stained cells ([12]; PC-3, compound 100 µM): 11.9 ± 2.4 % | percentage of rhodamine 123 stained cells ([13]; MCF-7, compound 50 µM): 77.0% ± 6.5% | percentage of rhodamine 123 stained cells ([13]; MCF-7, compound 50 µM, listed as Comp. 1): 77.0 ± 6.5 % | percentage of rhodamine 123 stained cells ([13]; MCF-7, compound 100 µM): 19.4 ± 1.5 % | percentage of rhodamine 123 stained cells ([14]; compound 50 µM): 111.6% ± 8.9% | percentage of rhodamine 123 stained cells ([14]; compound 50 µM, listed as Comp. 1): 49.1 ± 6.6 % | percentage of rhodamine 123 stained cells ([14]; compound 100 µM): 11.8 ± 2.9 %
